# Source: PMC10900215 (JACS Au, 2024)
# Values joined by “and” are separate entries in the source; they are usually repeats but may differ in a detail not shown here. Equal values may be shown once.
# Assays:
# METTL3 = target: T1, METTL3 (Homo sapiens, UniProt Q86U44); assay: Cellular degradation assay (Western blot), METTL3 in MOLM-13; format: cell-based; conditions: MOLM-13, 24 h, 2 μM compound
# T1 construct: METTL3–14 degradation up to 70% of the endogenous level; endogenous in cells; host or cells: MOLM-13, PC3, DU145
# Protocol: (§1) MOLM-13, NOMO-1, THP-1, Kasumi-1, PC3, and DU145 cell lines were obtained from DSMZ-German Collection of Microorganisms and Cell Cultures GmbH. Cells were cultured in RPMI 1640 medium (11875093, Thermo Fisher Scientific) containing 10% FBS (16140071, Thermo Fisher Scientific) and 1% penicillin-streptomycin (15140122, Thermo Fisher Scientific) in 5% CO2 at 37 °C in a humidified incubator, with maintained cell densities at 0.5–1 × 10^6 cells/mL. All cell lines were tested negative for mycoplasma contamination (PCR-based assay by Microsynth, Switzerland).
# (§2) METTL3 (and METTL14) protein degradation was monitored by Western blot. Cells were treated with the indicated concentration of PROTACs or DMSO control (0.1% (v/v)) for 24h, 37 °C with 5% CO2. Samples were then collected and lysed with RIPA buffer with added protease inhibitors (11697498001, Roche). After SDS-PAGE, proteins were transferred to a nitrocellulose membrane, blocked (with 5% milk, 0.5% BSA in TBST buffer), and incubated overnight with primary antibodies. The following antibodies were used: GAPDH (no. 2118, Cell Signaling, 1:4000), β-actin (ab8226, Abcam, 1:2000), METTL3 (ab195352, Abcam, 1:1000), and METTL14 (ab220031, Abcam, 1:1000). Membranes were scanned using an LI-COR Odyssey DLx imager after incubation with appropriate secondary antibodies (antimouse IgG IRDye 680RD (926–68072, LI-COR, 1:10000) and goat anti-Rabbit IgG IRDye 800CW (926–32211, LI-COR, 1:10000)). Densitometry was performed in Image Studio Lite software and analyzed in GraphPad Prism 9.
# METTL14 = assay: Cellular degradation assay (Western blot), METTL14 in MOLM-13; format: cell-based, human; conditions: MOLM-13, 24 h, 2 μM compound
# Protocol: as §1, §2
# [1] = target: T2, ternary complex CRBN/PROTAC/METTL3–14 (Homo sapiens, UniProt Q86U44+Q96SW2); assay: FRET-based ternary complex formation assay (TCFA); format: binding; conditions: for TCFA amplitude (mean ± SEM): Hook curve amplitude, fraction of the maximum of compound 16; for ECmax (nM) ± SD: PROTAC concentration at the maximum of the signal in the TCFA; for ECmax: TCFA, peak of the Hook curve
# T2 construct: methyltransferase domains (MTD) of METTL3 (residues 354–580); His6 (N, cleaved yes); made in house; host or cells: METTL3-MTD/METTL14-MTD: baculovirus/Sf9; CRBN-TBD: E. coli Rosetta (DE3), co-expressed with BirA
# Protocol: For protein expression, suspension cultures of Sf9 cells in […] medium (Thermo Fisher) were infected at a density of 2 × 10^6 mL^–1. […] The complex was further purified by size exclusion chromatography using a Superdex 200 Increase 10/300 GL column (Cytiva) in 20 mM Tris-Cl, pH 8.0, and 200 mM KCl. The complex was aliquoted and flash-frozen in liquid nitrogen and stored at −80 °C until further use.
# Ternary complex formation between the PROTACs, METTL3, and CRBN was quantified by a homogeneous time-resolved fluorescence (HTRF)-based enzyme assay. […] Curves of titrations with the PROTACs were plotted in GraphPad Prism 9.5.1 and fitted with a Gaussian function, if appropriate. […] CRBN^TBD-Avi(biotin) was used at a final concentration of 10 nM. […] Anti-GST Eu^3+-labeled antibody (Cisbio, 61GSTKLB) was used at a final concentration of 0.8 nM. The final reaction volume was 20 μL in 50 mM HEPES (pH 7.5), 150 mM NaCl, 0.1% BSA, 100 mM KF. […] The ratio of the emissions [drawing 1] was considered for further analysis. […] The concentrations resulting in the maximum signal (ECmax) and the amplitudes of the Hook curves were determined from the parameters of the Gaussian fit (if appropriate) or as the coordinates of the data-point with the highest TR-FRET signal.
# For the ternary complex formation assay (TCFA), one of the protein partners must have a GST-tag and the other a biotin-tag.
# [2] = Cell viability assay (CellTiter-Glo) on MOLM-13; format: cell-based; conditions: human, MOLM-13 cells, average of two biological replicates; for viability at 72 h, […]: 2.5 µM
# Protocol: as §1
# Cell viability was determined using a CellTiter-Glo luminescent cell viability assay (Promega) based on the detection of ATP according to the manufacturer’s instructions. 100 μL of the reagent was added to each well and incubated for 10 min at room temperature. […] Background luminescence value was obtained from wells containing the CellTiter-Glo reagent and medium without cells. The resulting data was analyzed in GraphPad Prism 9.
# METTL3-14 = METTL3-14 (Homo sapiens, UniProt Q86U44); assay: biochemical; parameters: with the full-length complex, the recombinant complex construct pFastBacDual-StrepII-GFP-TEV-METTL3-His-TEV-METTL14 was expressed; StrepII (N); GFP (N); TEV site (N); made in house; host or cells: baculovirus/Sf9 insect cells; conditions: inhibition of catalytic activity of METTL3-14, binary FRET assay
# Source text: For determining the half maximal inhibitory concentration (IC50) with the full-length complex, the recombinant complex construct pFastBacDual-StrepII-GFP-TEV-METTL3-His-TEV-METTL14 was expressed using the baculovirus/Sf9 insect cell expression system and purified as described previously.[21]
# The inhibitory potencies of the PROTACs for METTL3 were quantified by a homogeneous time-resolved fluorescence (HTRF)-based enzyme assay as previously described.[40]
# T1 sequence (Q86U44 2-580 limits assumed): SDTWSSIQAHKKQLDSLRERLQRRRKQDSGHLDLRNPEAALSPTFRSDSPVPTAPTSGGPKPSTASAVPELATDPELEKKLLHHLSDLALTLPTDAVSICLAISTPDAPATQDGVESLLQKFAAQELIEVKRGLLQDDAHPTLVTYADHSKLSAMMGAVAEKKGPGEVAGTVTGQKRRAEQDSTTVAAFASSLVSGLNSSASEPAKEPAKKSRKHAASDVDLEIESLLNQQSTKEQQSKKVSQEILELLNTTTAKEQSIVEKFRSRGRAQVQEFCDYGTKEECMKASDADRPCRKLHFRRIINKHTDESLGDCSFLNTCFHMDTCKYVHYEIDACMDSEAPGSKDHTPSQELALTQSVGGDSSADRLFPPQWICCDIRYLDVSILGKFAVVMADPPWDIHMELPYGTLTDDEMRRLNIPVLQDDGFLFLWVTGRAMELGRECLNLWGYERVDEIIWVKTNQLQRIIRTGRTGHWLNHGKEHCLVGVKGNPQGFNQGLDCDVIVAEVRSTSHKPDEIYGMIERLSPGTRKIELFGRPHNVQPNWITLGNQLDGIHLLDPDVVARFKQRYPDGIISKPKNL
# T1 sequence (Q9HCE5 whole entry partner): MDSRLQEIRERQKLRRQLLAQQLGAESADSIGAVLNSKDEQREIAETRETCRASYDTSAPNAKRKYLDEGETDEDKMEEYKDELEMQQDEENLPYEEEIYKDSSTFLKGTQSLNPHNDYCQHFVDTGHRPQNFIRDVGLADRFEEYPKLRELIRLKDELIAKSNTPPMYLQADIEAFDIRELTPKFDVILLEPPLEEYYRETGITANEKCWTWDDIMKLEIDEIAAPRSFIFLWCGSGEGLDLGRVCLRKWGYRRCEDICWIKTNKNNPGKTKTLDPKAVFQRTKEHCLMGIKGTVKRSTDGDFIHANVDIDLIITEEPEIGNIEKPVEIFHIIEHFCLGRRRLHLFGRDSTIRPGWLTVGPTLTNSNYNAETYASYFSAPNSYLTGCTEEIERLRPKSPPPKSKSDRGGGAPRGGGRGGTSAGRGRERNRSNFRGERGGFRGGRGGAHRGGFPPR
# Chain of METTL3-14 (Q86U44 whole entry): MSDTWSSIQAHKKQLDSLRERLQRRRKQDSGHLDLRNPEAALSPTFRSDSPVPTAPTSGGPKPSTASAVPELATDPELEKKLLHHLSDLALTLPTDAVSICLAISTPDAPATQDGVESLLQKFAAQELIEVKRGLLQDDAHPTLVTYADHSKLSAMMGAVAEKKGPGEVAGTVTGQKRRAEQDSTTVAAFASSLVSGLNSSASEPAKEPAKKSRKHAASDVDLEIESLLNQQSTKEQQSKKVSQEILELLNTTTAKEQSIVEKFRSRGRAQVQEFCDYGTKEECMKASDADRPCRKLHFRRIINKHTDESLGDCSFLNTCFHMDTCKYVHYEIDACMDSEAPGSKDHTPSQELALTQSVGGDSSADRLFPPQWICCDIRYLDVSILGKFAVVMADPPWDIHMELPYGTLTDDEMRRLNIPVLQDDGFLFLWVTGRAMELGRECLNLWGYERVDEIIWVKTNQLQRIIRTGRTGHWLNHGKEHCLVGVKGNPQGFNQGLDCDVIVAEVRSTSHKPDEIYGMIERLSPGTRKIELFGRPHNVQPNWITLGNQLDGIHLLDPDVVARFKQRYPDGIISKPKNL
# Chain of METTL3-14 (Q9HCE5 whole entry, further chain): as the sequence (Q9HCE5 whole entry partner) above
# T2 sequence (Q86U44 354-580): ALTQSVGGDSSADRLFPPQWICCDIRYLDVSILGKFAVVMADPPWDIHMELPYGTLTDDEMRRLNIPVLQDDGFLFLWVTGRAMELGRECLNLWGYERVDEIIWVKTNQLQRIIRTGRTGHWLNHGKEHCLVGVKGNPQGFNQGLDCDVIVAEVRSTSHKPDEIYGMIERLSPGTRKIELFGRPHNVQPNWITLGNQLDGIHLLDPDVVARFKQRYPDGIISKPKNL
# T2 sequence (Q9HCE5 107-395 partner limits assumed): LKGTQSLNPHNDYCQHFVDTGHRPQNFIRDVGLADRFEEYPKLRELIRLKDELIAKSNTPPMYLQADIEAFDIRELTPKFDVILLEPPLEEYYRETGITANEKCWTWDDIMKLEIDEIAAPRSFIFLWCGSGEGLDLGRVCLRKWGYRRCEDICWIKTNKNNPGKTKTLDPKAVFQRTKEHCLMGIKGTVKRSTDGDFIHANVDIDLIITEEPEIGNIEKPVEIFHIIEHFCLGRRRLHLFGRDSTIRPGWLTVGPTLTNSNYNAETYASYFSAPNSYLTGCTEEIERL
# T2 sequence (Q96SW2 318-442): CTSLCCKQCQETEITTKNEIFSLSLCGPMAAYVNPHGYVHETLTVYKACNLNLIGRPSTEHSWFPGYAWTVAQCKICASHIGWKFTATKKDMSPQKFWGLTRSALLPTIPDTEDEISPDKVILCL
Structure (SMILES),MOLM-13 West. blot at 24h 2 μM comp conc. Degradation (%) of METTL3 (METTL3),MOLM-13 West. blot at 24h 2 μM comp conc. Degradation (%) of METTL14 (METTL14),TCFA amplitude (mean ± SEM) [1],ECmax (nM) ± SD [1],"viability at 72 h, 10 µM [2] [%]",IC50 (METTL3-14) [nM],"viability at 72 h, 0.6 µM [2] [%]","viability at 72 h, 1.25 µM [2] [%]","viability at 72 h, […] [2] [%]","viability at 72 h, 5 µM [2] [%]",ECmax [1]
CC1(C)CCN(Cc2cc(F)c(N3CC(=O)NC4(CCN(c5cc(NCc6cccc(CNC(=O)CCCCCCCCNc7cccc8c7CN(C7CCC(=O)NC7=O)C8=O)c6)ncn5)CC4)C3)cc2F)CC1 (centres unmarked) [Compound 16],24 ± 14%,39 ± 13%,1.0 ± 0.0,430 ± 180 nM,103,67 ± 11,–,–,–,–,–
CC1(C)CCN(Cc2cc(F)c(N3CC(=O)NC4(CCN(c5cc(NCc6cn(CCCCCCCCC(=O)Nc7cccc8c7CN(C7CCC(=O)NC7=O)C8=O)nn6)ncn5)CC4)C3)cc2F)CC1 (centres unmarked) [Compound 26],13% and 13 ± 30%,12 ± 5%,0.8 ± 0.0,190 ± 80 nM,97.3,34 ± 11,97.9,92.6,91.2,96.6,–
CC1(C)CCN(Cc2cc(F)c(N3CC(=O)NC4(CCN(c5cc(NCc6cccc(CNC(=O)CCCCCCCCn7cc(CNc8cccc9c8C(=O)N(C8CCC(=O)NC8=O)C9=O)nn7)c6)ncn5)CC4)C3)cc2F)CC1 (centres unmarked) [Compound 19],33% and 33 ± 17%,40% and 40 ± 16%,0.9 ± 0.1,920 ± 150 nM,87.6,88 ± 21,104,104,102,97.1,–
CC1(C)CCN(Cc2cc(F)c(N3CC(=O)NC4(CCN(c5cc(NCCCNC(=O)CCCCCCCCNc6cccc7c6CN(C6CCC(=O)NC6=O)C7=O)ncn5)CC4)C3)cc2F)CC1 (centres unmarked) [Compound 10],18 ± 6%,18 ± 16%,1.0 ± 0.0,200 ± 110 nM,86.6,66 ± 10,–,–,–,–,below 1 μM
CC1(C)CCN(Cc2cc(F)c(N3CC(=O)NC4(CCN(c5cc(NCC6CCN(C(=O)CCCCCCCNc7cccc8c7C(=O)N(C7CCC(=O)NC7=O)C8=O)CC6)ncn5)CC4)C3)cc2F)CC1 (centres unmarked) [Compound 25],20 ± 9%,36 ± 7%,1.2 ± 0.1,1200 ± 120 nM,83.2,110 ± 10,102,94.8,92.1,87,–
CC1(C)CCN(Cc2cc(F)c(N3CC(=O)NC4(CCN(c5cc(NCCCNC(=O)CCCCCCCCCCNc6cccc7c6CN(C6CCC(=O)NC6=O)C7=O)ncn5)CC4)C3)cc2F)CC1 (centres unmarked) [Compound 11],/ (Degradation <10% or stabilization),17 ± 22%,0.3 ± 0.0,910 ± 40 nM,84.6,300 ± 40,–,–,–,–,below 1 μM
CC1(C)CCN(Cc2cc(F)c(N3CC(=O)NC4(CCN(c5cc(NCc6cn(CCCCCCCCCCC(=O)Nc7cccc8c7CN(C7CCC(=O)NC7=O)C8=O)nn6)ncn5)CC4)C3)cc2F)CC1 (centres unmarked) [Compound 27],12% and 12 ± 43%,/ (Degradation <10% or stabilization),0.7 ± 0.0,1100 ± 330 nM,90.9,610 ± 230,95.2,88.7,92.6,95.5,–
CC1(C)CCN(Cc2cc(F)c(N3CC(=O)NC4(CCN(c5cc(NCc6cccc(CNC(=O)CCCCCCCCCCNc7cccc8c7CN(C7CCC(=O)NC7=O)C8=O)c6)ncn5)CC4)C3)cc2F)CC1 (centres unmarked) [Compound 17],/ (Degradation <10% or stabilization),13 ± 6%,1.0 ± 0.0,920 ± 160 nM,106,160 ± 20,106,109,112,106,–
CC1(C)CCN(Cc2cc(F)c(N3CC(=O)NC4(CCN(c5cc(NCc6cccc(CNC(=O)CCn7cc(CNc8cccc9c8C(=O)N(C8CCC(=O)NC8=O)C9=O)nn7)c6)ncn5)CC4)C3)cc2F)CC1 (centres unmarked) [Compound 18],19 ± 13%,30 ± 12%,0.6 ± 0.1,80 ± 0 nM,105,14 ± 3,101,105,104,102,–
CC1(C)CCN(Cc2ccc(N3CC(=O)NC4(CCN(c5cc(NCCCNC(=O)CCOCCOCCNc6cccc7c6C(=O)N(C6CCC(=O)NC6=O)C7=O)ncn5)CC4)C3)cc2)CC1 (centres unmarked) [Compound 1],/ ^a (Degradation <10% or stabilization),/ ^a (Degradation <10% or stabilization),0.03,6800 (n = 1) nM,–,2470 ± 790,–,–,–,–,6.8 µM
